Biological target: T1, Poly [ADP-ribose] polymerase tankyrase-2 (Homo sapiens, UniProt Q9H2K2)
T1 sequence (Q9H2K2 whole entry): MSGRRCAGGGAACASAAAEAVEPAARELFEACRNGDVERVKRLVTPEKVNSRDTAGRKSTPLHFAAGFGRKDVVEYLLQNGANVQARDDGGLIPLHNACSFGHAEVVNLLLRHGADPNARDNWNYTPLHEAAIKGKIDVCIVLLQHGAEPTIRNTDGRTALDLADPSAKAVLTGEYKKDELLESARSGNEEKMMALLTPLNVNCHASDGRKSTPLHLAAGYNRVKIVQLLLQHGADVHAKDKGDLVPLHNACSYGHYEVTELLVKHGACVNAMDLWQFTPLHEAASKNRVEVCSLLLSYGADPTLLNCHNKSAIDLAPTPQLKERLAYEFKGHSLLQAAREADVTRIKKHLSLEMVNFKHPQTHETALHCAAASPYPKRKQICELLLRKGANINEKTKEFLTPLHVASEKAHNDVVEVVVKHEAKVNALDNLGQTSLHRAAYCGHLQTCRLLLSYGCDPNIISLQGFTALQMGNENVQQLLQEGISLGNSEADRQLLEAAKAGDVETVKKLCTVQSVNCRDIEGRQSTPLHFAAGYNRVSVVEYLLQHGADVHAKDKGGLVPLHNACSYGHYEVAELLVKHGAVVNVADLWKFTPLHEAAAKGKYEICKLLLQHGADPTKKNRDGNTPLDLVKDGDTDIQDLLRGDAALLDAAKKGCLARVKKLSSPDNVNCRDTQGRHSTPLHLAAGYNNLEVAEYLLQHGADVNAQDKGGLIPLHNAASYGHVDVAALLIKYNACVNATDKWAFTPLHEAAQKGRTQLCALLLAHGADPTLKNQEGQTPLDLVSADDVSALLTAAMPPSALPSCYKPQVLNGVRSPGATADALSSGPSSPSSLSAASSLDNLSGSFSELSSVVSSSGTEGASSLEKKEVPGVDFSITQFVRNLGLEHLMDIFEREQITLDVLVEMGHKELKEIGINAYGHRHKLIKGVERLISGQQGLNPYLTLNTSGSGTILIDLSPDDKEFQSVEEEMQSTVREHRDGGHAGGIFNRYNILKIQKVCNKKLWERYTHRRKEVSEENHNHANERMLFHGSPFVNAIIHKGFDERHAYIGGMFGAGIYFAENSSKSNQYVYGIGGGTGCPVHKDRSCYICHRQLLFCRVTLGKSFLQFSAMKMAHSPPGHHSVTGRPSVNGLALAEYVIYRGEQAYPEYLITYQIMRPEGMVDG
Test: Activity of N-terminus hexaHis-tagged human TNSK2 expressed in Escherichia coli BL21 (DE3) cells using biotinylated NAD+ as substrate after 90 mins by Western blot analysis

O=C(Nc1ccccc1)c1ccc(-n2c(O)c3c(c2O)[C@H]2C=C[C@@H]3C2)cc1
EC50: > 25 µM

O=C(NC1CCCCC1)c1ccc(-n2c(O)c3c(c2O)[C@H]2C=C[C@@H]3C2)cc1 [N-Cyclohexyl-4-((1R,2S,6R,7S)-3,5-dioxo-4-aza-tricyclo[5.2.1.0*2,6*]dec-8-en-4-yl)-benzamide]
EC50: > 25 µM

Source: BindingDB's records for doi:10.1021/jm201510p (Abo Akademi University, 2012)
